ChEMBL document CHEMBL5154806, “Synthesis and Profiling of Highly Selective Inhibitors of Methyltransferase DOT1L Based on Carbocyclic C-Nucleosides” (J Med Chem, 2022)
Calls of active or inactive are those of the source. No cut-off for these calls is given here.

Columns and labels:
[1] = biological target: T1, Histone-lysine N-methyltransferase, H3 lysine-79 specific (Homo sapiens, UniProt Q8TEK3); assay: Inhibition of human DOT1L by hotspot PMT activity assay
Target sequence in this assay (Q8TEK3 whole entry): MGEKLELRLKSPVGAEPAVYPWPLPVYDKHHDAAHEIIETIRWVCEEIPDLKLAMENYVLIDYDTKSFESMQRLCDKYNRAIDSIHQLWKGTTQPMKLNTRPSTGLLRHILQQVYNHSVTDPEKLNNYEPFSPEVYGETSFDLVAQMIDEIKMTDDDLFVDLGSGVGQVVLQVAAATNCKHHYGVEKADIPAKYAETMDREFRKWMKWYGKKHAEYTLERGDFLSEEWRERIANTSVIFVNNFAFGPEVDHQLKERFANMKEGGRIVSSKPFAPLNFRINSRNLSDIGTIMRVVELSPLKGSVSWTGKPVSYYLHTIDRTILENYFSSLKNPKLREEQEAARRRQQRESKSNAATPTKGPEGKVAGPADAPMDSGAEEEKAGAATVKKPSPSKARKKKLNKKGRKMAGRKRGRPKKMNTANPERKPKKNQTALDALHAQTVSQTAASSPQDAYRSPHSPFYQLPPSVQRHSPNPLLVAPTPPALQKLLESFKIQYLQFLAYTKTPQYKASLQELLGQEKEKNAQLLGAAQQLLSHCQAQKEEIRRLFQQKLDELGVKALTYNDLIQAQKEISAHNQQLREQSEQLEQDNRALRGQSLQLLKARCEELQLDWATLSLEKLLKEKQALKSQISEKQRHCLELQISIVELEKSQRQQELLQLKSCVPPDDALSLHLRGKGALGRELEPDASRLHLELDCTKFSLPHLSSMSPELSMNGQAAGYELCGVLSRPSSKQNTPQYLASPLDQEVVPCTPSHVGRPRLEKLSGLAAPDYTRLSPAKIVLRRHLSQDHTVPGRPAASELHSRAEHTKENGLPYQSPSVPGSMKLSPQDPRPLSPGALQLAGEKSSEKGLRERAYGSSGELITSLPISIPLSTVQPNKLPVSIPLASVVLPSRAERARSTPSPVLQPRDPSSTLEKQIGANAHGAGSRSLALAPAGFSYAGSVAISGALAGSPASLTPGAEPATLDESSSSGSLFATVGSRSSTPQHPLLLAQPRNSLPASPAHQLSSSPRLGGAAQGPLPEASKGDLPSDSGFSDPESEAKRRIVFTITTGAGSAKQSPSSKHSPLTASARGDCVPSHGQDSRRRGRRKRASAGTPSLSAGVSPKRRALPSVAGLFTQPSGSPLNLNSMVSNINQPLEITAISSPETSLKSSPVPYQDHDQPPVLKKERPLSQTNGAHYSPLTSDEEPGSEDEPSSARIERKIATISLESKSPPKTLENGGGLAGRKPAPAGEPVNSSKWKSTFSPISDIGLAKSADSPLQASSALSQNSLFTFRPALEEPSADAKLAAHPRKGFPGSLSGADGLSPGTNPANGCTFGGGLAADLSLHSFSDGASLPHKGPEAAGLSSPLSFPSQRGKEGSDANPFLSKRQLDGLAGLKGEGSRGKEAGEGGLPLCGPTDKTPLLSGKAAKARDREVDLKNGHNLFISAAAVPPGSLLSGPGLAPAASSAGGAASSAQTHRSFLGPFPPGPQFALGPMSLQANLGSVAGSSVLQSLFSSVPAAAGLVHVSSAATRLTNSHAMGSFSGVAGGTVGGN

[2] = biological target: T1, Histone-lysine N-methyltransferase, H3 lysine-79 specific; assay: Binding affinity to human DOT1L assessed as binding free energy difference
Target sequence in this assay (Q8TEK3 whole entry, looked up): as the sequence (Q8TEK3 whole entry) above

[3] = AUC (0 to infinity) in fasted BALB/c mouse at 20 mg/kg, iv administered upto 600 mins by HPLC-MS/MS analysis; type: ADME, organism-based; design: dose 20 mg/kg, time < 600 min, route iv; conditions: in vivo
[4] = Tmax in fasted BALB/c mouse at 20 mg/kg, iv administered upto 600 mins by HPLC-MS/MS analysis; type: ADME, organism-based; conditions: in vivo
[5] = Cmax in fasted BALB/c mouse at 20 mg/kg, iv administered upto 600 mins by HPLC-MS/MS analysis; type: ADME, organism-based; design: time < 600 min, dose 20 mg/kg, route iv; conditions: in vivo
[6] = Bioavailability in fasted BALB/c mouse at 20 mg/kg, iv administered upto 600 mins by HPLC-MS/MS analysis; type: ADME, organism-based; conditions: in vivo
[7] = AUC (0 to t) in fasted BALB/c mouse at 20 mg/kg, po administered upto 600 mins by HPLC-MS/MS analysis; type: ADME, organism-based; design: dose 20 mg/kg, time < 600 min, route po; conditions: in vivo
[8] = Cmax in fasted BALB/c mouse at 20 mg/kg, po administered upto 600 mins by HPLC-MS/MS analysis; type: ADME, organism-based; design: time < 600 min, dose 20 mg/kg, route po; conditions: in vivo
[9] = Half life in fasted BALB/c mouse at 20 mg/kg, po administered upto 600 mins by HPLC-MS/MS analysis; type: ADME, organism-based; conditions: in vivo
[10] = AUC (0 to infinity) in fasted BALB/c mouse at 20 mg/kg, po administered upto 600 mins by HPLC-MS/MS analysis; type: ADME, organism-based; design: dose 20 mg/kg, time < 600 min, route po; conditions: in vivo
[11] = Half life in fasted BALB/c mouse at 20 mg/kg, iv administered upto 600 mins by HPLC-MS/MS analysis; type: ADME, organism-based; conditions: in vivo
[12] = Elimination rate constant in fasted BALB/c mouse at 20 mg/kg, po administered upto 600 mins by HPLC-MS/MS analysis; type: ADME, organism-based; conditions: in vivo
[13] = Volume of distribution in fasted BALB/c mouse at 20 mg/kg, iv administered upto 600 mins by HPLC-MS/MS analysis; type: ADME, organism-based; conditions: in vivo
[14] = AUC (0 to t) in fasted BALB/c mouse at 20 mg/kg, iv administered upto 600 mins by HPLC-MS/MS analysis; type: ADME, organism-based; design: dose 20 mg/kg, time < 600 min, route iv; conditions: in vivo
[15] = Elimination rate constant in fasted BALB/c mouse at 20 mg/kg, iv administered upto 600 mins by HPLC-MS/MS analysis; type: ADME, organism-based; conditions: in vivo
[16] = Clearance in fasted BALB/c mouse at 20 mg/kg, iv administered upto 600 mins by HPLC-MS/MS analysis; type: ADME, organism-based; conditions: in vivo
[17] = Tmax in fasted BALB/c mouse at 20 mg/kg, po administered upto 600 mins by HPLC-MS/MS analysis; type: ADME, organism-based; conditions: in vivo
MOLM-13 [18] = assay: Cytotoxicity against human MOLM-13 cells assessed as reduction of cell viability at 1 to 40 uM incubated for 5 to 15 days by DiOC6/ propidium staining based flow cytometry analysis; type: functional; conditions: dose 1-40 µM, time 5-15 day
[19] = Tmax in fasted BALB/c mouse at 5 mg/kg, iv administered upto 600 mins by HPLC-MS/MS analysis; type: ADME, organism-based; conditions: in vivo
[20] = biological target: T1, Histone-lysine N-methyltransferase, H3 lysine-79 specific; assay: Inhibition of DOT1L in human OCI-AML5 cells assessed as decrease in H3K79 methylation at 1 to 10 uM using histone H3 as substrate incubated for 5 days by immunoblotting assay; type: cell-based; conditions: dose 1-10 µM, time 5.0 day, DDE = dose-dependent effect
Target sequence in this assay (Q8TEK3 whole entry, looked up): as the sequence (Q8TEK3 whole entry) above

[21] = AUC (0 to infinity) in fasted BALB/c mouse at 5 mg/kg, iv administered upto 600 mins by HPLC-MS/MS analysis; type: ADME, organism-based; design: dose 5 mg/kg, time < 600 min, route iv; conditions: in vivo
[22] = biological target: T1, Histone-lysine N-methyltransferase, H3 lysine-79 specific; assay: Inhibition of DOT1L in human MOLM-13 cells assessed as decrease in H3K79 methylation at 1 to 10 uM using histone H3 as substrate incubated for 3 days by immunoblotting assay; type: cell-based; conditions: dose 1-10 µM, time 3.0 day, DDE = dose-dependent effect
Target sequence in this assay (Q8TEK3 whole entry, looked up): as the sequence (Q8TEK3 whole entry) above

[23] = Volume of distribution in fasted BALB/c mouse at 5 mg/kg, iv administered upto 600 mins by HPLC-MS/MS analysis; type: ADME, organism-based; conditions: in vivo
[24] = Acute toxicity in BALB/c mouse assessed as respiratory failure at 5 mg/kg,iv measured after 6 to 7 mins; type: organism-based; conditions: in vivo, time 6-7 min
MOLM-13 [25] = assay: Cytotoxicity against human MOLM-13 cells assessed as metabolic activity at 1 to 40 uM incubated for 5 to 15 days by WST-1 assay; type: functional, cell-based; conditions: dose 1-40 µM, time 5-15 day
[26] = Acute toxicity in BALB/c mouse assessed as death at 10 to 20 mg/kg,iv; type: organism-based; conditions: in vivo, dose 10-20 mg/kg
[27] = Cmax in fasted BALB/c mouse at 5 mg/kg, iv administered upto 600 mins by HPLC-MS/MS analysis; type: ADME, organism-based; design: time < 600 min, dose 5 mg/kg, route iv; conditions: in vivo
[28] = Acute toxicity in BALB/c mouse at 10 to 20 mg/kg,iv; type: organism-based; conditions: in vivo, dose 10-20 mg/kg
[29] = AUC (0 to t) in fasted BALB/c mouse at 5 mg/kg, iv administered upto 600 mins by HPLC-MS/MS analysis; type: ADME, organism-based; design: time < 600 min, dose 5 mg/kg, route iv; conditions: in vivo
[30] = Clearance in fasted BALB/c mouse at 5 mg/kg, iv administered upto 600 mins by HPLC-MS/MS analysis; type: ADME, organism-based; conditions: in vivo
[31] = biological target: T1, Histone-lysine N-methyltransferase, H3 lysine-79 specific; assay: Inhibition of DOT1L in human MOLM-13 cells assessed as decrease in H3K79 methylation at 1 to 10 uM using histone H3 as substrate incubated for 5 days by immunoblotting assay; type: cell-based; conditions: dose 1-10 µM, time 5.0 day, DDE = dose-dependent effect
Target sequence in this assay (Q8TEK3 whole entry, looked up): as the sequence (Q8TEK3 whole entry) above

[32] = Acute toxicity in BALB/c mouse assessed as mild tremor at 5 mg/kg,iv measured after 6 to 7 mins; type: organism-based; conditions: in vivo, time 6-7 min
[33] = biological target: T1, Histone-lysine N-methyltransferase, H3 lysine-79 specific; assay: Inhibition of DOT1L in human SU-DHL-4 cells assessed as decrease in H3K79 methylation at 1 to 10 uM using histone H3 as substrate incubated for 5 days by immunoblotting assay; type: cell-based; conditions: dose 1-10 µM, time 5.0 day, DDE = dose-dependent effect
Target sequence in this assay (Q8TEK3 whole entry, looked up): as the sequence (Q8TEK3 whole entry) above

[34] = Half life in fasted BALB/c mouse at 5 mg/kg, iv administered upto 600 mins by HPLC-MS/MS analysis; type: ADME, organism-based; conditions: in vivo, iv, 5 mg/kg, 10 h
[35] = Elimination rate constant in fasted BALB/c mouse at 5 mg/kg, iv administered upto 600 mins by HPLC-MS/MS analysis; type: ADME, organism-based; conditions: in vivo, iv, 5 mg/kg, 10 h
[36] = biological target: T1, Histone-lysine N-methyltransferase, H3 lysine-79 specific; assay: Inhibition of DOT1L in human OCI-AML5 cells assessed as decrease in H3K79 methylation at 1 to 10 uM using histone H3 as substrate incubated for 3 days by immunoblotting assay; type: cell-based; conditions: dose 1-10 µM, time 3.0 day, DDE = dose-dependent effect
Target sequence in this assay (Q8TEK3 whole entry, looked up): as the sequence (Q8TEK3 whole entry) above

OCI-AML-3 [37] = assay: Cytotoxicity against human OCI-AML-3 cells assessed as reduction of cell viability at 1 to 40 uM incubated for 5 to 15 days by DiOC6/ propidium staining based flow cytometry analysis; type: functional; conditions: dose 1-40 µM, time 5-15 day
[38] = biological target: T1, Histone-lysine N-methyltransferase, H3 lysine-79 specific; assay: Inhibition of DOT1L in human SU-DHL-4 cells assessed as decrease in H3K79 methylation at 1 to 10 uM using histone H3 as substrate incubated for 3 days by immunoblotting assay; type: cell-based; conditions: dose 1-10 µM, time 3.0 day, DDE = dose-dependent effect
OCI-AML-3 [39] = assay: Cytotoxicity against human OCI-AML-3 cells assessed as reduction of cell viability at 1 to 40 uM incubated for 5 to 15 days by WST-1 assay; type: functional, cell-based; conditions: dose 1-40 µM, time 5-15 day

Nc1ncnn2c([C@@H]3C[C@H](CO)[C@@H](O)[C@H]3O)ccc12
IC50 [1]: > 10000 nM

CN(CCCNC(=O)Nc1ccc(C(C)(C)C)cc1)C[C@H]1C[C@@H](c2ccc3c(N)ncnn23)[C@H](O)[C@@H]1O (stereo in doubt; (+)-25) [listing 1 of 2 here]
deltaG [2]: -0.239 kcal/mol

CN(CCCNC(=O)Nc1ccccc1)C[C@H]1C[C@@H](c2ccc3c(N)ncnn23)[C@@H](O)[C@@H]1O
deltaG [2]: 3.82 kcal/mol

CC(C)NC[C@@H]1C[C@H](c2ccc3c(N)ncnn23)[C@@H](O)[C@H]1O
AUC(0-inf) [3]: 7250 ng·h/mL | Tmax [4]: 5 min | Cmax [5]: 18400 ng/mL | bioavailability [6]: 12% | AUC(0-t) at 10 h [7]: 830 ng·h/mL | Cmax [8]: 645 ng/mL | half-life [9]: 25.3 min | AUC(0-inf) [10]: 845 ng·h/mL | half-life [11]: 66.7 min | k el at 10 h [12]: 0.000457 s⁻¹ | Vd [13]: 4.43 L/kg | AUC(0-t) at 10 h [14]: 7170 ng·h/mL | k el at 10 h [15]: 0.000173 s⁻¹ | clearance [16]: 46 mL/min/kg | Tmax [17]: 120 min

CC(C)N(C[C@H]1O[C@@H](n2cnc3c(N)ncnc32)[C@H](O)[C@@H]1O)[C@H]1C[C@@H](CCc2nc3cc(C(C)(C)C)ccc3[nH]2)C1 [PINOMETOSTAT]
Activity (MOLM-13 [18]): Active | Tmax [19]: 5 min | Activity [20]: Dde | AUC(0-inf) [21]: 4870 ng·h/mL | Activity [22]: Dde | Vd [23]: 1.07 L/kg | Activity [24]: Toxic | Activity (MOLM-13 [25]): Active | Activity [26]: Toxic | AUC(0-t) at 10 h [7]: 0.662 ng·h/mL | Cmax [8]: 15.9 ng/mL | Cmax [27]: 13900 ng/mL | Activity [28]: Toxic | AUC(0-t) at 10 h [29]: 4830 ng·h/mL | clearance [30]: 17.1 mL/min/kg | Activity [31]: Dde | Activity [32]: Toxic | Activity [33]: Dde | t1/2 [34]: 43.2 min | Kel [35]: 0.00161 min⁻¹ | Activity [36]: Dde | Activity (OCI-AML-3 [37]): Active | Activity [38]: Dde | Activity (OCI-AML-3 [39]): Active | Tmax [17]: 5 min

CC(C)N(C[C@H]1C[C@@H](c2ccc3c(N)ncnn23)[C@H](O)[C@@H]1O)[C@H]1C[C@H](CCc2nc3cc(C(C)(C)C)ccc3[nH]2)C1 (racemic)
IC50 [1]: 13.8 nM

CC(C)N(CCCNC(=O)Nc1ccc(C(C)(C)C)cc1)C[C@H]1C[C@@H](c2ccc3c(N)ncnn23)[C@H](O)[C@@H]1O
IC50 [1]: 292 nM

CN(CCCNC(=O)Nc1ccc(C(C)(C)C)cc1)C[C@H]1C[C@@H](c2ccc3c(N)ncnn23)[C@H](O)[C@@H]1O (stereo in doubt; (+)-25) [listing 2 of 2 here]
IC50 [1]: 7410 nM

CC(C)N(C[C@@H]1C[C@H](c2ccc3c(N)ncnn23)[C@@H](O)[C@H]1O)[C@H]1C[C@@H](CCc2nc3cc(C(C)(C)C)ccc3[nH]2)C1
IC50 [1]: 80 nM
